Test results as given in patent US11713309B2, “Solid forms of Cerdulatinib” (Alexion Pharmaceuticals, Inc., priority 2018, dated 2023).
Where a name gives a salt, the structure may show the parent alone. Read-outs that look alike come from different tables or passages of the source.

What was measured:
Type in all cases: physicochemical
[1] = Kinetic solubility in FeSSIF
Method: (§1) Kinetic solubility testing was conducted as follows: About 40-55 mg material was weighed into a 5-mL EP pipe. 4 mL of water/bio-relevant media (SGF, FaSSIF, or FeSSIF) was added into the corresponding sample pipe (drug loading: ˜10 mg/mL calculated as freebase). The pipes were capped tightly and the material was verified to be in contact with the media. The sample vials were placed on a roller and start rolling at 37° C. (rate: 25 r/min). Samples were taken at 1, 2, 4, 24 h. For each time point, 1.0 mL of suspension was transferred into a 2-mL centrifuge tube and the samples were centrifuged. The supernatant was filtered via 0.45 μm PTFE membrane and solubility and pH were measured. An XRPD test on residual solids was conducted.

[2] = Dynamic vapor sorption (DVS) analysis
Text: In view of the DVS analysis, compound I HCl Form I may be characterized as a monohydrate.

[3] = Overall solid form comparison (summary statements)
Text: The hydration behavior of Compound I HCl Form I is reversible, such that rehydration of Compound I HCl Form I returns the single, crystalline form, allowing Compound I HCl Form I be stored at ambient conditions without desiccant.

[4] = Further solubility testing of Compound I HCl Form I in solvents
[5] = Solution stability in buffer solutions; details: buffer solutions pH about 1.2 to about 10.0, about 60° C., 2 days
Method: The stability of Compound I HCl Form I in buffer solutions over a pH range of about 1.2 to about 10.0 was also evaluated. These solutions were stored at about 60° C., and assayed for pH and % remaining at 2 days.

[6] = Polymorphic stability at elevated temperatures
[7] = Solid-state storage stability at controlled temperature/RH; details: for Form change / HPLC purity on storage: 2 weeks, initial HPLC purity 99.3%
Method: Storage at 25° C./60% RH and at 40° C./75% RH: Compound I HCl Form I was stored at 25° C./60% RH and at 40° C./75% RH. Initial HPLC purity was 99.3%.

[8] = Kinetic solubility in water; details: 37° C., listed as HC1 salt Form I; for pH of supernatant: water (native pH 7.6); for Kinetic solubility: water
Method: as §1

[9] = Approximate kinetic solubility in simulated biological fluids; details: about 37° C.; for solubility kinetic at 2 h: equilibrated for 2 hrs; for solubility kinetic at 1 day: equilibrated for 1 day
Text: (§2) A summary of the approximate kinetic solubility of Compound I HCl Form I in organic solvents, simulated biological fluids, and common pharmaceutical co-solvents is provided in Tables 8-10, respectively.

[10] = Storage under vacuum at 40° C. and at 60° C.; details: 4 days, initial HPLC purity 99.3%
Method: Storage under vacuum at 40° C. and at 60° C.: Compound I HCl Form I was stored under vacuum at 40° C. and at 60° C. Initial HPLC purity was 99.3%.

[11] = Approximate kinetic solubility in organic solvents; details: kinetic from dmso stock
Text: as §2

Low humidity testing = assay: Low humidity testing
Method: Low Humidity testing: Compound I HCl salt Form I was placed under N2 and checked by in situ XRPD at 20 min and 60 minutes. […] HCl salt Form I was placed under N2 bleeding for ˜60 min and TGA and DSC were measured. […] (peak temperature).

[12] = XRPD form evaluation of materials recovered after solubility analysis; details: aqueous solubility analysis, second scale up material
Method: The solubility of the salts/co-crystals of Compound I prepared from the second scale up process was analyzed. The materials recovered after the solubility analysis were evaluated by XRPD to observe any form changes.

[13] = DMSO, organic solvent or mixture
[14] = simulated gastric fluid, SGF (pH 1.2)

With `CCS(=O)(=O)N1CCN(c2ccc(Nc3ncc(C(N)=O)c(NC4CC4)n3)cc2)CC1` [Compound I HCl Form I, 4-(cyclopropylamino)-2-(4-(4-(ethylsulfonyl)piperazin-1-yl)phenylamino)pyrimidine-5-carboxamide] the “Kinetic solubility in FeSSIF (qualitative)” value ([1]; 37° C.) was “favorable kinetic solubility”, the “Solubility (mg/mL) 1 h” value ([1]; 37° C., 1 h, drug loading ~10 mg/mL as freebase, listed as HC1 salt Form I) was 0.049 mg/mL and the “Solubility (mg/mL) 2 h” value ([1]; 37° C., 2 h, listed as HC1 salt Form I) was 0.031 mg/mL. The “Solubility (mg/mL) 4 h” value ([1]; 37° C., 4 h, listed as HC1 salt Form I) was 0.010 mg/mL, the “Solubility (mg/mL) 24 h” value ([1]; 37° C., 24 h, listed as HC1 salt Form I) was 0.0072 mg/mL and the “Final Form 2 h, 4 h, 24 h” value ([1]; XRPD of residual solids, 2 h, 4 h, 24 h) was “Freebase Form II”. The “pH 1 h” value ([1]; supernatant, 1 h, listed as HC1 salt Form I) was 4.9, the “pH 2 h” value ([1]; supernatant, 2 h, listed as HC1 salt Form I) was 4.7 and the “pH 4 h” value ([1]; supernatant, 4 h, listed as HC1 salt Form I) was 4.7. For the same molecule, the “pH 24 h” value ([1]; supernatant, 24 h, listed as HC1 salt Form I) was 4.5, the “De-hydration and re-hydration behaviour (DVS)” value [2] was “reversible” and the “RH at which complete moisture re-uptake is observed (DVS)” value [2] was “about 20 % RH”. The DVS weight ([2]; below about 10% RH) was “up to 3.5%”, the DVS moisture uptake ([2]; between about 40% and about 90% RH) was “minimal moisture uptake with no hysteresis” and the “Stability relative to the other solid forms / salts of Compound I” value [3] was “most physico-chemically stable solid form”. The “Stability relative to the other solid forms / salts of Compound I” value ([3]; listed as Compound I mono-HCl Form I) was “superior thermodynamically stability”, the “Stability of the solid form” value ([3]; room temperature, ambient conditions) was “stable” and the solubility ([4]; 1,4-dioxane, organic solvent or mixture) was under 2100 µg/mL. For the same molecule, the solubility ([4]; 2-MeTHF, organic solvent or mixture) was under 2100 µg/mL, the solubility ([4]; ACN, organic solvent or mixture) was under 2200 µg/mL and the solubility ([4]; ACN/H2O, 4:1 (v/v), organic solvent or mixture) was 2900 to 3800 µg/mL. It also gave a solubility ([4]; Acetone/H2O, 4:1 (v/v), organic solvent or mixture) of under 1900 µg/mL, a solubility ([4]; CHCl3, organic solvent or mixture) of under 2300 µg/mL and a solubility ([4]; CPME, organic solvent or mixture) of under 2000 µg/mL. It also gave a solubility ([4]; DCM, organic solvent or mixture) of under 2100 µg/mL, a solubility [4, 13] of over 36000 µg/mL and a solubility ([4]; EtOAc, organic solvent or mixture) of under 2000 µg/mL. The solubility ([4]; EtOH, organic solvent or mixture) was under 2200 µg/mL, the solubility ([4]; EtOH/H2O, 4:1 (v/v), organic solvent or mixture) was under 2000 µg/mL and the solubility ([4]; IPA, organic solvent or mixture) was under 1900 µg/mL. The solubility ([4]; IPAc, organic solvent or mixture) was under 2300 µg/mL, the solubility ([4]; MIBK, organic solvent or mixture) was under 2300 µg/mL and the solubility ([4]; MTBE, organic solvent or mixture) was under 2000 µg/mL. For the same molecule, the solubility ([4]; MeOH, organic solvent or mixture) was 1900 to 6300 µg/mL, the solubility ([4]; MeOH/DCM, 1:1 (v/v), organic solvent or mixture) was 6800 to 12500 µg/mL and the solubility ([4]; MeOH/H2O, 4:1 (v/v), organic solvent or mixture) was under 2000 µg/mL. The solubility ([4]; NMP, organic solvent or mixture) was 4000 to 6700 µg/mL, the solubility ([4]; THF, organic solvent or mixture) was under 1900 µg/mL and the solubility ([4]; THF/H2O, 4:1 (v/v), organic solvent or mixture) was 2000 to 2500 µg/mL. It also gave a solubility ([4]; acetone, organic solvent or mixture) of under 2200 µg/mL, a solubility ([4]; anisole, organic solvent or mixture) of under 2300 µg/mL and a solubility ([4]; n-heptane, organic solvent or mixture) of under 1900 µg/mL. The solubility ([4]; toluene, organic solvent or mixture) was under 2100 µg/mL, the “pH at which most stable in solution (% remaining)” value [5] was “about 4.5” and the “Polymorphism after re-hydrating post-TGA material (DSC)” value ([6]; 3 days at about 60% RH) was “no gross effect upon the polymorphism, but amorphous content did appear”. The “Crystalline form after dry-heating (XRPD, DSC, proton NMR)” value ([6]; about 50° C., about 72 hours) was “did not change the crystalline form”, the “Crystalline form after heating inside TGA” value ([6]; up to about 120° C. until approximately 3% weight loss) was “slight loss of crystallinity, but without a new form appearing” and the “Form change / HPLC purity on storage” value ([7]; 25° C./60% RH) was “No form change or decrease in purity by HPLC”. For the same molecule, the “Form change / HPLC purity on storage” value ([7]; 40° C./75% RH) was “No form change or decrease in purity by HPLC”, the “Form change on storage (XRPD, TGA and DSC)” value ([7]; powder, about 6 months, about 40° C./75% RH, open dish) was “did not exhibit any form change” and the pH of supernatant ([8]; 1 h) was 3.1. The pH of supernatant ([8]; 2 h) was 2.9, the pH of supernatant ([8]; 4 h) was 3.0 and the pH of supernatant ([8]; 24 h) was 2.9. The Kinetic solubility ([8]; 1 h) was 220 µg/mL, the Kinetic solubility ([8]; 2 h) was 250 µg/mL and the Kinetic solubility ([8]; 4 h) was 180 µg/mL. It also gave a Kinetic solubility ([8]; 24 h) of 180 µg/mL, a solubility kinetic at 2 h ([9]; FaSSIF (pH 6.1)) of 3 µg/mL and a solubility kinetic at 1 day ([9]; FaSSIF (pH 6.1)) of 3 µg/mL. It also gave a solubility kinetic at 2 h ([9]; FeSSIF (pH 5.0)) of 35 µg/mL, a solubility kinetic at 1 day ([9]; FeSSIF (pH 5.0)) of 39 µg/mL and a solubility kinetic at 2 h [9, 14] of 67 µg/mL. The solubility kinetic at 1 day [9, 14] was 78 µg/mL, the “Form change / HPLC purity on storage under vacuum” value ([10]; 40° C.) was “No form change or decrease in purity by HPLC” and the “Form change / HPLC purity on storage under vacuum” value ([10]; 60° C.) was “No form change or decrease in purity by HPLC”. For the same molecule, the solubility kinetic ([11]; Acetone, MeCN, IPA, EtOAc, THF, Dioxane, DCM, organic solvent or mixture) was under 100 µg/mL, the solubility kinetic ([11]; DMF, PEG300, organic solvent or mixture) was 1000 to 10000 µg/mL and the solubility kinetic [11, 13] was 10000 to 33300 µg/mL. The solubility kinetic ([11]; Methanol, Ethanol, PG, Safflower Seed Oil, Tween 80, organic solvent or mixture) was 100 to 1000 µg/mL, the “Form under N2 by in situ XRPD” value (Low humidity testing; N2 bleeding for 20 min, 10.2% RH) was “A new form was observed” and the “Form after re-exposure to ambient conditions” value (Low humidity testing; after N2 bleeding) was “converted back to HCl salt Form I quickly”. The “Form change on solubility analysis (XRPD post vs pre)” value [12] was “no form change”.
